# How the values were obtained:
# [1] = Vasodilatory activity in rabbit coronary artery assessed as inhibition of KCl-induced contraction; assay type: functional, tissue-based, Oryctolagus cuniculus
# L5178Y = experiment: Cytotoxicity against mouse L5178Y cells; assay type: functional, cell-based
# L1210 = experiment: Cytotoxicity against mouse L1210 cells; assay type: functional, cell-based
SMILES,IC50 [1] [nM],IC50 (L5178Y) [µg/mL],IC50 (L1210) [µg/mL]
C=C1[C@H](C)CCC[C@]1(C)CC/C(C)=C/CC1=C(O)C(=O)C=C(OC)C1=O [METACHROMIN A],3000,,
C=C1[C@H](C)CCC[C@]1(C)CC[C@@]1(C)C=Cc2c(O)c(OC)cc(OC)c2O1 [METACHROMIN B],3000,,
COC1=CC(=O)C(O)=C(C/C=C(\C)CC[C@@]2(C)CCC=C(C)[C@H]2C)C1=O [METACHROMIN C],3000,0.92,2

# — ChEMBL document CHEMBL1147317, “Metachromin C, a new cytotoxic sesquiterpenoid from the Okinawan marine sponge Hippospongia metachromia” (J Nat Prod, 1989)
